Experimental data as given in article PMC6659393, “A New Use for an Old Drug: Carmofur Attenuates Lipopolysaccharide (LPS)-Induced Acute Lung Injury via Inhibition of FAAH and NAAA Activities” (Frontiers in Pharmacology, 2019).

What was measured:
[1] = target: T1, fatty acid amide hydrolase (FAAH) (Rattus norvegicus, UniProt P97612); assay: AEA hydrolysis by HPLC-MS in crude protein of carmofur-treated HEK293-rFAAH cells; dialysis reversibility test; format: cell-based
T1 construct: rat FAAH overexpressed in HEK293 cells (HEK293-rFAAH), crude protein
T1 sequence (P97612 1-579): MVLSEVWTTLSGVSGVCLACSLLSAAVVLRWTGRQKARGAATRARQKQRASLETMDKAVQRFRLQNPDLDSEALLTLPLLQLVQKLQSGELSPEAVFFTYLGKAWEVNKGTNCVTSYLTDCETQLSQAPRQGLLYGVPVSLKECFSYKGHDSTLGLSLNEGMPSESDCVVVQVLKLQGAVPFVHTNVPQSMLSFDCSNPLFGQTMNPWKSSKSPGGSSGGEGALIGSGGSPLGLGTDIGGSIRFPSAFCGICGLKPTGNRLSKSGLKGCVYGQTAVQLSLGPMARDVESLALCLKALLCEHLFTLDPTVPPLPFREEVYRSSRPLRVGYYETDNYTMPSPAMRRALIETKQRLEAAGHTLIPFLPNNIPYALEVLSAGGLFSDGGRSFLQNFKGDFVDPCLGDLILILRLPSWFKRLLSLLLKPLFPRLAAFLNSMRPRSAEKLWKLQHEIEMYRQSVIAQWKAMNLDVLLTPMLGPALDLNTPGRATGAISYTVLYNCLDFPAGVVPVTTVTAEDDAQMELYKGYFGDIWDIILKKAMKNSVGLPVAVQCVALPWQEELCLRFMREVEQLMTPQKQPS

[2] = target: T2, N-acylethanolamine acid amidase (NAAA) (Rattus norvegicus, UniProt Q5KTC7); assay: C17:[…] FAE hydrolysis by HPLC-MS in crude protein of carmofur-treated HEK293-rNAAA cells; dialysis reversibility test; format: cell-based
T2 construct: rat NAAA overexpressed in HEK293 cells (HEK293-rNAAA), crude protein
T2 sequence (Q5KTC7 34-130): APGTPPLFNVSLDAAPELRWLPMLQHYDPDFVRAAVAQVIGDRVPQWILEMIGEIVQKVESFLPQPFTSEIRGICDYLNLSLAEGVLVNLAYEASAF
T2 sequence (Q5KTC7 131-362): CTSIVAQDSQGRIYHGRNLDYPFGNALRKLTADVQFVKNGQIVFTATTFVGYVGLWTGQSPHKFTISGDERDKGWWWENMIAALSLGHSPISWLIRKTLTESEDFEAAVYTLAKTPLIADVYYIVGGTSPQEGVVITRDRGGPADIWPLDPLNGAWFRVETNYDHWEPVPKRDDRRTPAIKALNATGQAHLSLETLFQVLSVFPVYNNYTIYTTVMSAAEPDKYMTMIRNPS

IC50 [1]: 110 ± 25 nM
IC50 [2]: 710 ± 54 nM
SMILES: CCCCCCNC(=O)n1cc(F)c(=O)[nH]c1=O [carmofur]
